We go through seven compounds from patent US11236084B2, “Substituted azaindoline derivatives as NIK inhibitors” (Janssen Pharmaceutica NV, priority 2017, dated 2022).

Data set [1] addresses recombinant human NF-kappaB-inducing kinase (NIK/MAP3K14) (Homo sapiens, UniProt Q99558). In words: Biological Assay B: inhibition of auto-phosphorylation of recombinant human NIK/MAP3K14 (AlphaScreen), performed at 2 locations. Format: biochemical. To be noted: location 1; NIK auto-phosphorylation, AlphaScreen; averaged values; read-out: Assay B location 1 IC50. The method, boiled down: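 GST-tagged NIK (0.2 nM) auto-phosphorylation with 25 microM ATP in 50 mM Tris pH 7.5, 5 mM MgCl2, 1% DMSO, 1 h at 25° C. Anti-phospho-IKK Ser176/180 AlphaScreen readout; blank-subtracted IC50 from sigmoidal fit. Run at two sites.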
(In Alpha technology, singlet oxygen from a donor bead excites a nearby acceptor bead.)

In data set [2] the test system is P-IKKα levels in L363 (NIK translocated multiple myeloma) cells. In words: Biological Assay C: effect of compounds on P-IKKα levels in L363 (NIK translocated multiple myeloma) cells, performed at 2 locations. Format: cell-based, human. The note with it: location 1; P-IKKα levels in L363 cells, 2 hr treatment; averaged values; read-out: Assay C location 1 IC50. In outline: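 Human L363 cells were primed 24 h with recombinant human BAFF, then treated 2 h with compound (8-point 1:3 dilutions, 1% DMSO) at 37 °C. IC50 came from a sigmoidal fit of % inhibition versus log concentration, determined at two sites.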

Sequence of recombinant human NF-kappaB-inducing kinase (NIK/MAP3K14) (Q99558 whole entry): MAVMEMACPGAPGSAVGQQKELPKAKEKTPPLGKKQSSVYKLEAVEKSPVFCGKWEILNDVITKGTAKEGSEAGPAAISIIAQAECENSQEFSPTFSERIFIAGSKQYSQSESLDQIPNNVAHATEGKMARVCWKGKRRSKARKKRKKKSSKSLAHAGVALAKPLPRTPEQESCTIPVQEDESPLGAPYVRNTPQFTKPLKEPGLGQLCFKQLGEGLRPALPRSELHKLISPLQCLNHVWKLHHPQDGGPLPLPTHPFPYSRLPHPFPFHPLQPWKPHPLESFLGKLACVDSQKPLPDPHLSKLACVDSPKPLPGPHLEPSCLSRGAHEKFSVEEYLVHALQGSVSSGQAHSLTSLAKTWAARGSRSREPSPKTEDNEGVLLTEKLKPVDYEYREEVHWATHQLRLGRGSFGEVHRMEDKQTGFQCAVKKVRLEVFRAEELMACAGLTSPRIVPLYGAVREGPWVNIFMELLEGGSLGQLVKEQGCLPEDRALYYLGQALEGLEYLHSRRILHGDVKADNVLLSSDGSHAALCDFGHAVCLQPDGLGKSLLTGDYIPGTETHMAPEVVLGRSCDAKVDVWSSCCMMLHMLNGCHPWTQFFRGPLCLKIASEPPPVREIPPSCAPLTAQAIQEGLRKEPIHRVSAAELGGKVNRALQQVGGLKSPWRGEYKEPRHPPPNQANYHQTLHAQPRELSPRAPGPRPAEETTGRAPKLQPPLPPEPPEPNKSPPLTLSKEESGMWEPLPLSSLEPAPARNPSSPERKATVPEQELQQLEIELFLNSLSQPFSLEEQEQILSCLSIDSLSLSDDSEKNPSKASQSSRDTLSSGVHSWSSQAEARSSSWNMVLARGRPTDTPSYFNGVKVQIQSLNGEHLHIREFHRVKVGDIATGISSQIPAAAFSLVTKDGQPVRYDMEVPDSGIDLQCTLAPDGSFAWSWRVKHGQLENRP

One may read the IC50 as the concentration at which inhibition is half-maximal. By melting point is commonly meant the temperature of the solid-liquid transition. Consider `COc1cc(N2CCC(O)CC2)c(Cl)cc1Nc1nccc(-c2cnc3c(c2)C(C)(CO)CN3)n1` (single isomer, unassigned) [Compound 16], for which the melting point was > 260 °C. For the same compound, the IC50 in data set [1] worked out at 0.0032 µM. For the same compound, in data set [2], the IC50 amounted to 0.0191 µM.

For `COc1cc(C(=O)NC2CCOCC2)ccc1Nc1ncc(Cl)c(-c2cnc3c(c2)C(C)(CO)CN3)n1` (single isomer, unassigned) [Compound 350], the melting point is > 250 °C. In addition, in data set [1], the IC50 was found to be 0.295 µM.

With `COc1cc(N2CC3(CCOCC3)C2)c(Cl)cc1Nc1ncc(F)c(-c2cnc3c(c2)C(C)(CO)CN3)n1` (stereo not drawn) [Compound 345], the melting point is > 250 °C. For the same compound, the IC50 in data set [1] came to 0.0191 µM.

`COc1ccc(Cl)cc1Nc1nccc(-c2cnc3c(c2)C(C)(C)CN3)n1` [Compound 353] registered a melting point of 210 °C. The IC50 in data set [1] is 0.0724 µM.

Regarding `COc1ccc(Cl)cc1Nc1nccc(-c2cnc3c(c2)C(C)(CO)CN3)n1` (stereo not drawn) [Compound 354], the melting point was 236 °C. Further, in data set [1], the IC50 is 0.003 µM.

The compound `Cc1ccc(Cl)cc1Nc1nccc(-c2cnc3c(c2)C(C)(CO)CN3)n1` (stereo not drawn) [Compound 355] yielded a melting point of 221 °C. Moreover, the IC50 in data set [1] worked out at 0.0025 µM.

Turning to `COCCOc1ccc(Cl)cc1Nc1nccc(-c2cnc3c(c2)C(C)(CO)CN3)n1` (stereo not drawn) [Compound 356], the melting point is 208 °C. Besides, the IC50 in data set [1] worked out at 0.0246 µM.
